Patent US9643955B2, “2-pyridyloxy-3-nitrile-4-substituted orexin receptor antagonists” (MERCK SHARP & DOHME CORP., priority 2012, dated 2017)

Tests used:
hOX2R = biological target: T1, hOX2R (Homo sapiens, UniProt O43614); assay: radioligand binding assay, hOX2R; settings: membranes prepared from CHO cells expressing the OX2 receptor; read-out: hOX2R BIND hKi
T1 construct: expressed in transfected cells; host or cells: membranes of CHO cells
T1 sequence (O43614 1-444): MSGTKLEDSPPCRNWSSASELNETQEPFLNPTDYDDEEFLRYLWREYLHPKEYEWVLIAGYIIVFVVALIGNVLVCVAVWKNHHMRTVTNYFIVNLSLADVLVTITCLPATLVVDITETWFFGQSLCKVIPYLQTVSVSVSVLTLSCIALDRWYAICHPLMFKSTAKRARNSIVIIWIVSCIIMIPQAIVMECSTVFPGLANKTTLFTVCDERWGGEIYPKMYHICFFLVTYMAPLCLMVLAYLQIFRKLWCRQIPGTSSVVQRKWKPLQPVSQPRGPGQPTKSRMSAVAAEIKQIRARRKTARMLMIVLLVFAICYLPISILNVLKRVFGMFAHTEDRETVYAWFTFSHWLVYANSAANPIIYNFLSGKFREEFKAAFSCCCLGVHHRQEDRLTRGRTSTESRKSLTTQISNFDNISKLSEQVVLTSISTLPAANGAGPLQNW
Protocol: (§1) The utility of the compounds in accordance with the present invention as orexin receptor OX1R and/or OX2R antagonists may be readily determined without undue experimentation by methodology well known in the art, including the “FLIPR Ca^2+ Flux Assay” (Okumura et al., Biochem. Biophys. Res. Comm. 280:976-981, 2001). In a typical experiment the OX1 and OX2 receptor antagonistic activity of the compounds of the present invention was determined in accordance with the following experimental method. For intracellular calcium measurements, Chinese hamster ovary (CHO) cells expressing the rat orexin-1 receptor or the human orexin-2 receptor, are grown in Iscove's modified DMEM containing 2 mM L-glutamine, […], 1% hypoxanthine-thymidine supplement, 100 U/ml penicillin, 100 μg/ml streptomycin and 10% heat-inactivated fetal calf serum (FCS). The cells are seeded at 20,000 cells/well into Becton-Dickinson black 384-well clear bottom sterile plates coated with poly-D-lysine. All reagents were from GIBCO-Invitrogen Corp. The seeded plates are incubated overnight at 37° C. and 5% CO2. Ala-6,12 human orexin-A as the agonist is prepared as a 1 mM stock solution in 1% bovine serum albumin (BSA) and diluted in assay buffer (HBSS containing 20 mM HEPES, 0.1% BSA and 2.5 mM probenecid, pH7.4) for use in the assay at a final concentration of 70 pM. Test compounds are prepared as 10 mM stock solution in DMSO, then diluted in 384-well plates, first in DMSO, then assay buffer. On the day of the assay, cells are washed 3 times with 100 μl assay buffer and then incubated for 60 min (37° C., 5% CO2) in 60 μl assay buffer containing 1 μM Fluo-4AM ester, 0.02% pluronic acid, and 1% BSA. The dye loading solution is then aspirated and cells are washed 3 times with 100 μl assay buffer. 30 μl of that same buffer is left in each well. Within the Fluorescent Imaging Plate Reader (FLIPR, Molecular Devices), test compounds are added to the plate in a volume of 25 μl, incubated for 5 min and finally 25 μl of agonist is added. Fluorescence is measured for each well at 1 second intervals for 5 minutes and the height of each fluorescence peak is compared to the height of the fluorescence peak induced by 70 pM Ala-6,12 orexin-A with buffer in place of antagonist. […] The intrinsic orexin receptor antagonist activity of a compound which may be used in the present invention may be determined by these assays.

hOX1R [1] = biological target: T2, hOX1R (Homo sapiens, UniProt O43613); assay: radioligand binding assay, hOX1R; set-up: expressed in transfected cells; host or cells: membranes of CHO cells; settings: membranes prepared from CHO cells expressing the OX1 receptor; read-out: hOX1R BIND hKi
T2 sequence (O43613 1-425): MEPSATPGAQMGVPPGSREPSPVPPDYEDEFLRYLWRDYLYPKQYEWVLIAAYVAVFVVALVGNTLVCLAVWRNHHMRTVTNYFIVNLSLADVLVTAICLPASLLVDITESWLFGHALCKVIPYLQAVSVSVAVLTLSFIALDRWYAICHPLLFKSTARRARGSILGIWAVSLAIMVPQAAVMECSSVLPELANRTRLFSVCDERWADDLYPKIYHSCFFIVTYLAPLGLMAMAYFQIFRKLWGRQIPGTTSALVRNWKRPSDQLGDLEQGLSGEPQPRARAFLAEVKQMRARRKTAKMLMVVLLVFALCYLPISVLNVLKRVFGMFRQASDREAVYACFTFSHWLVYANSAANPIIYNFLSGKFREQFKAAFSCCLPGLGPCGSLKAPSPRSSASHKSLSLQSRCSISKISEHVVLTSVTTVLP
Protocol: as §1

human orexin-2 receptor = biological target: T3, human orexin-2 receptor (Homo sapiens, UniProt O43614); assay: FLIPR Ca2+ Flux Assay, hOX2R; assay type: cell-based; settings: CHO cells expressing the human orexin-2 receptor; agonist 70 pM Ala-6,12 orexin-A
T3 construct: expressed in transfected cells; host or cells: CHO cells
T3 sequence (O43614 1-444): T1 sequence (O43614 1-444)
Protocol: The utility of the compounds in accordance with the present invention as orexin receptor OX1R and/or OX2R antagonists may be readily determined without undue experimentation by methodology well known in the art, including the “FLIPR Ca^2+ Flux Assay” (Okumura et al., Biochem. Biophys. Res. Comm. 280:976-981, 2001). In a typical experiment the OX1 and OX2 receptor antagonistic activity of the compounds of the present invention was determined in accordance with the following experimental method. For intracellular calcium measurements, Chinese hamster ovary (CHO) cells expressing the rat orexin-1 receptor or the human orexin-2 receptor, are grown in Iscove's modified DMEM containing 2 mM L-glutamine, […], 1% hypoxanthine-thymidine supplement, 100 U/ml penicillin, 100 μg/ml streptomycin and 10% heat-inactivated fetal calf serum (FCS). The cells are seeded at 20,000 cells/well into Becton-Dickinson black 384-well clear bottom sterile plates coated with poly-D-lysine. All reagents were from GIBCO-Invitrogen Corp. The seeded plates are incubated overnight at 37° C. and 5% CO2. Ala-6,12 human orexin-A as the agonist is prepared as a 1 mM stock solution in 1% bovine serum albumin (BSA) and diluted in assay buffer (HBSS containing 20 mM HEPES, 0.1% BSA and 2.5 mM probenecid, pH7.4) for use in the assay at a final concentration of 70 pM. Test compounds are prepared as 10 mM stock solution in DMSO, then diluted in 384-well plates, first in DMSO, then assay buffer. On the day of the assay, cells are washed 3 times with 100 μl assay buffer and then incubated for 60 min (37° C., 5% CO2) in 60 μl assay buffer containing 1 μM Fluo-4AM ester, 0.02% pluronic acid, and 1% BSA. The dye loading solution is then aspirated and cells are washed 3 times with 100 μl assay buffer. 30 μl of that same buffer is left in each well. Within the Fluorescent Imaging Plate Reader (FLIPR, Molecular Devices), test compounds are added to the plate in a volume of 25 μl, incubated for 5 min and finally 25 μl of agonist is added. Fluorescence is measured for each well at 1 second intervals for 5 minutes and the height of each fluorescence peak is compared to the height of the fluorescence peak induced by 70 pM Ala-6,12 orexin-A with buffer in place of antagonist. For each antagonist, IC50 value (the concentration of compound needed to inhibit 50% of the agonist response) is determined Alternatively, compound potency can be assessed by a radioligand binding assay (described in Bergman et. al. Bioorg. Med. Chem. Lett. 2008, 18, 1425-1430) in which the inhibition constant (Ki) is determined in membranes prepared from CHO cells expressing either the OX1 or OX2 receptor. The intrinsic orexin receptor antagonist activity of a compound which may be used in the present invention may be determined by these assays.

hOX1R [2] = biological target: T2, hOX1R; assay: FLIPR Ca2+ Flux Assay, hOX1R; assay type: cell-based; set-up: expressed in transfected cells; host or cells: CHO cells; settings: CHO cells expressing orexin-1 receptor; agonist 70 pM Ala-6,12 orexin-A

| SMILES | Ki (hOX2R) [nM] | Ki (hOX1R [1]) [nM] | IC50 (human orexin-2 receptor) [nM] | IC50 (hOX1R [2]) [nM] |
| --- | --- | --- | --- | --- |
| Cc1ccc(-n2nccn2)c(C(=O)N2C[C@H](Oc3nccc(C)c3C#N)CC[C@H]2C)c1 [Example 11, 4-methyl-2-{[(3R,6R)-6-methyl-1-{[5-methyl-2-(2H-1,2,3-triazol-2-yl)phenyl]carbonyl}piperidin-3-yl]oxy}pyridine-3-carbonitrile] | 24 | 7 |  |  |
| CSc1ccnc(O[C@@H]2CC[C@@H](C)N(C(=O)c3ccccc3-n3nccn3)C2)c1C#N [Example 1, 4-(Methylsulfanyl)-2-{[(3R,6R)-6-methyl-1-{[2-(2H-1,2,3-triazol-2-yl)phenyl]carbonyl}-piperidin-3-yl]oxy}pyridine-3-carbonitrile] |  |  | 39 | 7440 |
| Cc1ccnc(O[C@@H]2CC[C@@H](C)N(C(=O)c3cnccc3-n3nccn3)C2)c1C#N [Example 4, 4-methyl-2-{[(3R,6R)-6-methyl-1-{[4-(2H-1,2,3-triazol-2-yl)pyridin-3-yl]carbonyl}piperidin-3-yl]oxy}pyridine-3-carbonitrile] | 54 | 1290 |  |  |
| Cc1ccnc(O[C@@H]2CC[C@@H](C)N(C(=O)c3cccc(C)c3-n3nccn3)C2)c1C#N [Example 7, 4-methyl-2-{[(3R,6R)-6-methyl-1-{[3-methyl-2-(2H-1,2,3-triazol-2-yl)phenyl]carbonyl}piperidin-3-yl]oxy}pyridine-3-carbonitrile] |  |  | 20.3 | 457 |
| Cc1ccnc(O[C@@H]2CC[C@@H](C)N(C(=O)c3c(F)cccc3-n3nccn3)C2)c1C#N [Example 5, 2-{[(3R,6R)-1-{[2-fluoro-6-(2H-1,2,3-triazol-2-yl)phenyl]carbonyl}-6-methylpiperidin-3-yl]oxy}-4-methylpyridine-3-carbonitrile] | 34 | 3610 |  |  |
| COc1ccc(C(=O)N2C[C@H](Oc3nccc(C)c3C#N)CC[C@H]2C)c(-n2nccn2)n1 [Example 12, 2-{[(3R,6R)-1-{[6-methoxy-2-(2H-1,2,3-triazol-2-yl)pyridin-3-yl]carbonyl}-6-methylpiperidin-3-yl]oxy}-4-methylpyridine-3-carbonitrile] |  |  | 280 | 10000 |
| Cc1ccnc(O[C@@H]2CC[C@@H](C)N(C(=O)c3cccc(F)c3-n3nccn3)C2)c1C#N [Example 10, 2-{[(3R,6R)-1-{[3-fluoro-2-(2H-1,2,3-triazol-2-yl)phenyl]carbonyl}-6-methylpiperidin-3-yl]oxy}-4-methylpyridine-3-carbonitrile] |  |  | 42.6 | 3650 |
| Cc1ccnc(O[C@@H]2CC[C@@H](C)N(C(=O)c3ccc(Cl)cc3-n3nccn3)C2)c1C#N [Example 3, 2-{[(3R,6R)-1-{[4-Chloro-2(2H-1,2,3-triazol-2-yl)phenyl]carbonyl}-6-methylpiperidin-3-yl]oxy}-4-methylpyridine-3-carbonitrile] |  |  | 73.6 | 3710 |
| COc1cccc(-n2nccn2)c1C(=O)N1C[C@H](Oc2nccc(C)c2C#N)CC[C@H]1C [Example 6, 2-{[(3R,6R)-1-{[2-methoxy-6-(2H-1,2,3-triazol-2-yl)phenyl]carbonyl}-6-methylpiperidin-3-yl]oxy}-4-methylpyridine-3-carbonitrile] |  |  | 67.6 | 1160 |
| COc1ccc(C(=O)N2C[C@H](Oc3nccc(C)c3C#N)CC[C@H]2C)c(-n2nccn2)c1 [Example 9, 2-{[(3R,6R)-1-{[4-methoxy-2-(2H-1,2,3-triazol-2-yl)phenyl]carbonyl}-6-methylpiperidin-3-yl]oxy}-4-methylpyridine-3-carbonitrile] | 60 | 5660 |  |  |
| Cc1ccnc(O[C@@H]2CC[C@@H](C)N(C(=O)c3ccccc3-n3nccn3)C2)c1C#N [Example 2, 4-Methyl-2{[(3R,6R)-6-methyl-1-{[2-(2H-1,2,3-triazol-2-yl)phenyl]carbonyl}piperidin-3-yl]oxy}pyridine-3-carbonitrile] |  |  | 9.8 | 464 |
| Cc1ccnc(O[C@@H]2CC[C@@H](C)N(C(=O)c3ccc(F)cc3-n3nccn3)C2)c1C#N [Example 8, 2-{[(3R,6R)-1-{[4-fluoro-2-(2H-1,2,3-triazol-2-yl)phenyl]carbonyl}-6-methylpiperidin-3-yl]oxy}-4-methylpyridine-3-carbonitrile] |  |  | 59.8 | 7390 |
